Reference: US20260167623A1 (NIKANG THERAPEUTICS, INC., priority 2022, published 2026)

Biological target: T1, CDK2 (Homo sapiens, UniProt P24941)
T1 construct: High-Throughput Measurement of Cellular Endogenous CDK2; endogenous in cells; host or cells: OVCAR3
Assay: Inhibition of CDK2: phospho-Rb (S807/811) HTRF measurement in OVCAR3 cells, 24 h
Format: cell-based
Settings: 24 h compound treatment, read-out: pRB_OVCAR3_24h
How it was run: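 IC50 came from a four-parameter fit of DMSO-normalized TR-FRET ratios (665/620 nm) reporting phospho-Rb S807/811. Lysates were taken from OVCAR3 cultures treated 24 h with compound (0.3 to 10,000 nM) and incubated 4 h at room temperature with the antibody pair.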

SMILES | IC50 [nM]
Cn1nc(N2CCC(=O)NC2=O)c2ccc(N3CCN(CC4CCN(c5cccc(S(=O)(=O)N6CCC(Nc7ncc(Cl)cn7)CC6)c5)CC4)CC3(C)C)cc21 [Example 159, 1-(6-(4-((1-(3-((4-((5-chloropyrimidin-2-yl)amino)piperidin-1-yl)sulfonyl)phenyl)piperidin-4-yl)methyl)-2,2-dimethylpiperazin-1-yl)-1-methyl-1H-indazol-3-yl)dihydropyrimidine-2,4(1H,3H)-dione] | 100 to 500
Cn1nc(N2CCC(=O)NC2=O)c2ccc(C3CCN(CC4CCN(c5cc(C#N)cc(S(=O)(=O)N6CCC(Nc7ncc(Cl)cn7)CC6)c5)CC4)CC3)cc21 [Example 160, 3-((4-((5-chloropyrimidin-2-yl)amino)piperidin-1-yl)sulfonyl)-5-(4-((4-(3-(2,4-dioxotetrahydropyrimidin-1(2H)-yl)-1-methyl-1H-indazol-6-yl)piperidin-1-yl)methyl)piperidin-1-yl)benzonitrile 2,2,2-trifluoroacetate] | 100 to 500
Cn1nc(N2CCC(=O)NC2=O)c2ccc(C3CCN(CC4CCN(c5ccc(C#N)c(S(=O)(=O)N6CCC(Nc7ncc(Cl)cn7)CC6)c5)CC4)CC3)cc21 [Example 161, 2-((4-((5-chloropyrimidin-2-yl)amino)piperidin-1-yl)sulfonyl)-4-(4-((4-(3-(2,4-dioxotetrahydropyrimidin-1(2H)-yl)-1-methyl-1H-indazol-6-yl)piperidin-1-yl)methyl)piperidin-1-yl)benzonitrile] | > 2500
Cn1nc(N2CCC(=O)NC2=O)c2ccc(C3CCN(Cc4cnn(C5CCN(S(=O)(=O)N6CCC(Nc7ncc(Cl)cn7)CC6)CC5)c4)CC3)cc21 [Example 163, 1-(6-(1-((1-(1-((4-((5-chloropyrimidin-2-yl)amino)piperidin-1-yl)sulfonyl)piperidin-4-yl)-1H-pyrazol-4-yl)methyl)piperidin-4-yl)-1-methyl-1H-indazol-3-yl)dihydropyrimidine-2,4(1H,3H)-dione] | > 2500
Cn1nc(N2CCC(=O)NC2=O)c2ccc(C3CCN(CC4(C#N)CCN(c5cccc(S(=O)(=O)N6CCC(Nc7ncc(Cl)cn7)CC6)c5)CC4)CC3)cc21 [Example 164, 1-(3-((4-((5-chloropyrimidin-2-yl)amino)piperidin-1-yl)sulfonyl)phenyl)-4-((4-(3-(2,4-dioxotetrahydropyrimidin-1(2H)-yl)-1-methyl-1H-indazol-6-yl)piperidin-1-yl)methyl)piperidine-4-carbonitrile] | > 2500
Cn1nc(N2CCC(=O)NC2=O)c2ccc(N3CCC(CN4C5CCC4CN(c4cccc(S(=O)(=O)N6CCC(Nc7ncc(Cl)cn7)CC6)c4)C5)CC3)cc21 [Example 166, 1-(6-(4-((3-(3-((4-((5-chloropyrimidin-2-yl)amino)piperidin-1-yl)sulfonyl)phenyl)-3,8-diazabicyclo[3.2.1]octan-8-yl)methyl)piperidin-1-yl)-1-methyl-1H-indazol-3-yl)dihydropyrimidine-2,4(1H,3H)-dione] | > 2500
Cn1c(=O)n(C2CCC(=O)NC2=O)c2cc(C3CCN(CC4CCN(c5cccc(S(=O)(=O)N6CCC(Nc7ncc(C(F)(F)F)cn7)CC6)c5)CC4)CC3)ccc21 (centres unmarked) [Example 167, 3-(3-methyl-2-oxo-6-(1-((1-(3-((4-((5-(trifluoromethyl)pyrimidin-2-yl)amino)piperidin-1-yl)sulfonyl)phenyl)piperidin-4-yl)methyl)piperidin-4-yl)-2,3-dihydro-1H-benzo[d]imidazol-1-yl)piperidine-2,6-dione] | 500 to 2500
Cn1nc(N2CCC(=O)NC2=O)c2ccc(C3CCN(Cc4cc(S(=O)(=O)N5CCC(Nc6ncc(OC(F)F)cn6)CC5)ccc4C#N)CC3)cc21 [Example 169, 4-((4-((5-(difluoromethoxy)pyrimidin-2-yl)amino)piperidin-1-yl)sulfonyl)-2-((4-(3-(2,4-dioxotetrahydropyrimidin-1(2H)-yl)-1-methyl-1H-indazol-6-yl)piperidin-1-yl)methyl)benzonitrile] | 100 to 500
Cn1nc(N2CCC(=O)NC2=O)c2ccc(C3CCN(CC4CCN(c5cc(C(F)(F)F)cc(S(=O)(=O)N6CCC(Nc7ncc(Cl)cn7)CC6)c5)CC4)CC3)cc21 [Example 170, 1-(6-(1-((1-(3-((4-((5-chloropyrimidin-2-yl)amino)piperidin-1-yl)sulfonyl)-5-(trifluoromethyl)phenyl)piperidin-4-yl)methyl)piperidin-4-yl)-1-methyl-1H-indazol-3-yl)dihydropyrimidine-2,4(1H,3H)-dione] | 500 to 2500
O=C1CCC(n2c(=O)n(C3CCN(CC4CCN(c5cccc(S(=O)(=O)N6CCC(Nc7ncc(C(F)(F)F)cn7)CC6)c5)CC4)CC3)c3ccccc32)C(=O)N1 (centres unmarked) [Example 171, 3-(2-oxo-3-(1-((1-(3-((4-((5-(trifluoromethyl)pyrimidin-2-yl)amino)piperidin-1-yl)sulfonyl)phenyl)piperidin-4-yl)methyl)piperidin-4-yl)-2,3-dihydro-1H-benzo[d]imidazol-1-yl)piperidine-2,6-dione] | 100 to 500
Cn1nc(N2CCC(=O)NC2=O)c2ccc(C3CCN(CC4CCN(c5cccc(S(=O)(=O)N6CC7(CC(Nc8ncc(C(F)(F)F)cn8)C7)C6)c5)CC4)CC3)cc21 [Example 172, 1-(1-methyl-6-(1-((1-(3-((6-((5-(trifluoromethyl)pyrimidin-2-yl)amino)-2-azaspiro[3.3]heptan-2-yl)sulfonyl)phenyl)piperidin\-4-yl)methyl)piperidin-4-yl)-1H-indazol-3-yl)dihydropyrimidine-2,4(1H,3H)-dione] | > 2500
Cn1c(=O)n(C2CCC(=O)NC2=O)c2cccc(C3CCN(CC4CCN(c5cc(C(F)(F)F)cc(S(=O)(=O)N6CCC(Nc7ncc(Cl)cn7)CC6)c5)CC4)CC3)c21 (centres unmarked) [Example 173, 3-(4-(1-((1-(3-((4-((5-chloropyrimidin-2-yl)amino)piperidin-1-yl)sulfonyl)-5-(trifluoromethyl)phenyl)piperidin-4-yl)methyl)piperidin-4-yl)-3-methyl-2-oxo-2,3-dihydro-1H-benzo[d]imidazol-1-yl)piperidine-2,6-dione] | 500 to 2500
Cn1c(=O)n(C2CCC(=O)NC2=O)c2cccc(C3CCN(CC4CCN(c5cc(C(F)(F)F)cc(S(=O)(=O)N6CCC(Nc7ncc(OC(F)F)cn7)CC6)c5)CC4)CC3)c21 (centres unmarked) [Example 176, 3-(4-(1-((1-(3-((4-((5-(difluoromethoxy)pyrimidin-2-yl)amino)piperidin-1-yl)sulfonyl)-5-(trifluoromethyl)phenyl)piperidin-4-yl)methyl)piperidin-4-yl)-3-methyl-2-oxo-2,3-dihydro-1H-benzo[d]imidazol-1-yl)piperidine-2,6-dione] | 500 to 2500
Cn1nc(N2CCC(=O)NC2=O)c2ccc(C3CCN(CC4CCN(c5cccc(S(=O)(=O)N6CC(Nc7ncc(C(F)(F)F)cn7)C6)c5)CC4)CC3)cc21 [Example 178, 1-(1-methyl-6-(1-((1-(3-((3-((5-(trifluoromethyl)pyrimidin-2-yl)amino)azetidin-1-yl)sulfonyl)phenyl)piperidin-4-yl)methyl)piperidin-4-yl)-1H-indazol-3-yl)dihydropyrimidine-2,4(1H,3H)-dione] | > 2500
Cn1nc(N2CCC(=O)NC2=O)c2ccc(CN3CCN(c4cccc(S(=O)(=O)N5CCC(Nc6ncc(C(F)(F)F)cn6)CC5)c4)CC3)cc21 [Example 179, 1-(1-methyl-6-((4-(3-((4-((5-(trifluoromethyl)pyrimidin-2-yl)amino)piperidin-1-yl)sulfonyl)phenyl)piperazin-1-yl)methyl)-1H-indazol-3-yl)dihydropyrimidine-2,4(1H,3H)-dione] | 500 to 2500
O=C1CCN(c2cccc(C3CCN(CC4CCN(c5cccc(S(=O)(=O)N6CCC(Nc7ncc(Cl)cn7)CC6)c5)CC4)CC3)c2)C(=O)N1 [Example 182, 1-(3-(1-((1-(3-((4-((5-chloropyrimidin-2-yl)amino)piperidin-1-yl)sulfonyl)phenyl)piperidin-4-yl)methyl)piperidin-4-yl)phenyl) dihydropyrimidine-2,4(1H,3H)-dione] | 100 to 500
Cn1nc(N2CCC(=O)NC2=O)c2ccc(C3CCN(Cc4ccnc(S(=O)(=O)N5CCC(Nc6ncc(C(F)(F)F)cn6)CC5)c4)CC3)cc21 [Example 183, 1-(1-methyl-6-(1-((2-((4-((5-(trifluoromethyl)pyrimidin-2-yl)amino)piperidin-1-yl)sulfonyl)pyridin-4-yl)methyl)piperidin-4-yl)-1H-indazol-3-yl)dihydropyrimidine-2,4(1H,3H)-dione] | 500 to 2500
N#Cc1ccc(S(=O)(=O)N2CCC(Nc3ncc(Cl)cn3)CC2)cc1N1CCC(CN2CCN(c3cc4c(cc3F)C(=O)N(C3CCC(=O)NC3=O)C4=O)CC2)CC1 (centres unmarked) [Example 185, 4-((4-((5-chloropyrimidin-2-yl)amino)piperidin-1-yl)sulfonyl)-2-(4-((4-(2-(2,6-dioxopiperidin-3-yl)-6-fluoro-1,3-dioxoisoindolin-5-yl)piperazin-1-yl)methyl)piperidin-1-yl)benzonitrile] | 500 to 2500
O=C1CCC(n2c(=O)n(CC3CCN(CC4CCN(c5cccc(S(=O)(=O)N6CCC(Nc7ncc(C(F)(F)F)cn7)CC6)c5)CC4)CC3)c3ccccc32)C(=O)N1 (centres unmarked) [Example 186, 3-(2-oxo-3-((1-((1-(3-((4-((5-(trifluoromethyl)pyrimidin-2-yl)amino)piperidin-1-yl)sulfonyl)phenyl)piperidin-4-yl)methyl)piperidin-4-yl)methyl)-2,3-dihydro-1H-benzo[d]imidazol-1-yl)piperidine-2,6-dione] | 1 to 100
Cn1nc(N2CCC(=O)NC2=O)c2ccc(C3CCN(CC4CCN(c5cccc(S(=O)(=O)N6CCC(Nc7ncc(Cl)cn7)CC6)c5F)CC4)CC3)cc21 [Example 187, 1-(6-(1-((1-(3-((4-((5-chloropyrimidin-2-yl)amino)piperidin-1-yl)sulfonyl)-2-fluorophenyl)piperidin-4-yl)methyl)piperidin-4-yl)-1-methyl-1H-indazol-3-yl)dihydropyrimidine-2,4(1H,3H)-dione] | 100 to 500
